Experimental data: PMC11396972, “Synthesis of Hybrid Molecules with Imidazole-1,3,4-thiadiazole Core and Evaluation of Biological Activity on Trypanosoma cruzi and Leishmania donovani” (Molecules, 2024)
Blank lines part the entries; values can stand above or below the molecule they belong to.

Columns and labels:
[1] = system: Leishmania donovani promastigotes (LD51 strain); assay: Proliferation of L. donovani promastigotes, MTT test, single concentration; assay type: cell-based; conditions: 72 h incubation, read-out: L. donovani % Inhibition ± SD (antiproliferative activity)
Description: A drug-free control (negative control) was included and positive controls were Metronidazole (Mtz), Benznidazole (Bnz), Amphotericin B (Aph), and Nifurtimox (Nfx), (50 μM). […] Parasites were collected in the logarithmic phase of growth before the experiments. It was arranged in plates of 96 wells, 4 × 10^5 promastigotes per well and incubated at room temperature °C for 24 h. Subsequently, the compounds to be evaluated, dissolved in DMSO (0.1% final), were added at a single concentration of 50 μM, a drug-free control (negative control) was included, and amphotericin B was used as leishmanicidal control. To select those compounds active on promastigotes, it was incubated for 72 h after and then MTT (5 mg/mL), dissolved in PBS, was added and incubated for 4 h in the dark. Finally, the cells were lysed with DMSO and the plate was read in a spectrophotometer at 570 nm.

[2] = system: Leishmania donovani promastigotes (LD51 strain); assay: Estimation of IC50 on promastigotes of L. donovani, MTT test; assay type: cell-based; conditions: 72 h, eight concentrations 5–500 µM, triplicate
Description: (§1) Parasites were collected in the logarithmic phase of growth before the experiments. The test compounds, as well as the reference drugs, metronidazole, nifurtimox and amphotericin B, were previously dissolved in DMSO and then in LIT medium and added to the cultures at the required concentrations; the final DMSO concentration in cultures was 1% (v/v). Eight concentrations of each compound in the range 5–500 µM were tested and assayed in triplicate. Growth inhibition was assessed after 72 h incubation in the presence of the compounds by MTT (5 mg/mL), dissolved in PBS, and incubated for 4 h in the dark. Finally, the parasites were lysed with DMSO and the plate was read in a spectrophotometer at 570 nm.

[3] = Host cell toxicity assay, MTT; assay type: cell-based; conditions: African green monkey, Vero cells (uninfected); Vero cells, 48 h, MTT; read-out: CC50 (μM) cytotoxicity on Vero cells
Description: (§2) To determine the possible toxic effects of the compounds on the host cells, uninfected Vero cells, maintained in DMEM, BSF 10%, incubated at 37 °C in humidified 5% CO2, were counted in suspension in a Neubauer chamber and seeded at 2 × 10^4 cells/well in a 96-well plate. After 24 h compounds were added. […] A total of 5 mg/mL of MTT was added and incubated in darkness for 4 h. After this time, DMSO was added and the plate was read at 540 nm in a spectrophotometer Synergy HT (Biotek, Winooski, VT, USA).

[4] = system: Trypanosoma cruzi epimastigotes (Y strain (TCII)); assay: Proliferation of T. cruzi epimastigotes, MTT test, single concentration; assay type: cell-based; conditions: 72 h incubation; for inhibition at 50 µM: Trypanosoma cruzi, 72 h, read-out: T. cruzi % Inhibition ± SD (antiproliferative activity); for T. cruzi % Inhibition ± SD (antiproliferative activity): 50 μM
Description: A drug-free control (negative control) was included and positive controls were Metronidazole (Mtz), Benznidazole (Bnz), Amphotericin B (Aph), and Nifurtimox (Nfx), (50 μM). […] Parasites were collected in the logarithmic phase of growth before the experiments. It was arranged in plates of 96 wells, 2 × 10^5 epimastigotes per well and incubated at 28 °C for 24 h. Subsequently, the compounds to be evaluated, dissolved in DMSO (0.1% final), were added at a single concentration of 50 μM. A drug-free control (negative control) was included, and benznidazole and nifurtimox were included as positive controls. […] Finally, the cells were lysed with DMSO and the plate was read in a spectrophotometer at 570 nm.

[5] = system: Trypanosoma cruzi epimastigotes (Y strain (TCII)); assay: Estimation of IC50 on epimastigotes of T. cruzi, MTT test; assay type: cell-based; conditions: 72 h, eight concentrations 5–500 µM, triplicate
Description: as §1

Vero cells = assay: Host cell toxicity assay, MTT; assay type: cell-based; conditions: for L. donovani (SI) selectivity index: Vero cells CC50 versus L. donovani IC50; for T. cruzi (SI) selectivity index: Vero cells CC50 versus T. cruzi IC50
Description: as §2

Compound: C[C@@H]1[C@H](O)[C@@H](C)/C=C/C=C/C=C/C=C/C=C/C=C/C=C/[C@H](O[C@@H]2O[C@H](C)[C@@H](O)[C@H](N)[C@@H]2O)C[C@@H]2O[C@](O)(C[C@@H](O)C[C@@H](O)[C@H](O)CC[C@@H](O)C[C@@H](O)CC(=O)O[C@H]1C)C[C@H](O)[C@H]2C(=O)O [Aph, Amphotericin B, reference compound]
inhibition at 50 µM [1]: 62.4 ± 6.6% | IC50 [2]: 0.33 ± 0.02 µM | CC50 at 48 h [3]: > 250 µM

Compound: O=C(Cn1ccnc1[N+](=O)[O-])NCc1ccccc1 [Bnz, Benznidazole, reference compound]
inhibition at 50 µM [4]: 45.4 ± 6.21%

Compound: Cc1ncc([N+](=O)[O-])n1CCO [Mtz, Metronidazole, reference compound]
inhibition at 50 µM [4]: 12.2 ± 5.3% | IC50 [5]: 180 ± 18.9 µM | IC50 [2]: 50.3 ± 11.9 µM

Compound: CC1CS(=O)(=O)CCN1/N=C/c1ccc([N+](=O)[O-])o1 (stereo not shown) [Nfx, Nifurtimox, reference compound]
inhibition at 50 µM [4]: 83 ± 1.6% | IC50 [5]: 1.81 ± 0.45 µM | CC50 at 48 h [3]: > 90 µM

Continued, in another order:

melting point: 232 to 234 °C
Compound: Cc1ncc([N+](=O)[O-])n1CCOC(=O)c1ccc(Nc2nnc(-c3cccnc3)s2)cc1 [Compound 18, 2-(2-Methyl-5-nitro-1H-imidazol-1-yl)ethyl-4-[(5-(pyridin-3-yl)-1,3,4-thiadiazol-2-yl]amino)benzoate]
inhibition at 50 µM [4]: 17.4 ± 14.4% | inhibition at 50 µM [1]: 10.1 ± 2.92%

IC50 [5]: 56.3 ± 6.83 µM | melting point: 202 to 204 °C
Compound: Cc1ncc([N+](=O)[O-])n1CCOC(=O)c1ccc(Nc2nnc(-c3cccc(Cl)c3)s2)cc1 [Compound 19, 2-(2-Methyl-5-nitro-1H-imidazol-1-yl)ethyl-4-{[5-(3-chlorophenyl)-1,3,4-thiadiazol-2-yl]amino}benzoate]
T. cruzi % Inhibition ± SD (antiproliferative activity) [4]: 53.10 ± 3.68% | inhibition at 50 µM [4]: ~50% | inhibition at 50 µM [1]: 31.8 ± 1.95% | IC50 [2]: 59.7 ± 8.82 µM | CC50 at 48 h [3]: > 500 µM | L. donovani (SI) selectivity index (Vero cells): >8.37 | T. cruzi (SI) selectivity index (Vero cells): >8.87

IC50 [5]: 51.7 ± 6.59 µM | melting point: 242 to 244 °C
Compound: Cc1ncc([N+](=O)[O-])n1CCOC(=O)c1ccc(Nc2nnc(-c3ccc(Cl)cc3)s2)cc1 [Compound 20, 2-(2-Methyl-5-nitro-1H-imidazol-1-yl)ethyl-4-{[5-(4-chlorophenyl)-1,3,4-thiadiazol-yl]amino}benzoate]
T. cruzi % Inhibition ± SD (antiproliferative activity) [4]: 49.37 ± 4.45% | inhibition at 50 µM [4]: ~50% | inhibition at 50 µM [1]: 40.4 ± 4.18% | IC50 [2]: 54.5 ± 8.51 µM | CC50 at 48 h [3]: > 500 µM | L. donovani (SI) selectivity index (Vero cells): >9.17 | T. cruzi (SI) selectivity index (Vero cells): >9.67

IC50 [5]: 55.5 ± 7.2 µM | melting point: 240 to 242 °C
Compound: Cc1ncc([N+](=O)[O-])n1CCOC(=O)c1ccc(Nc2nnc(-c3ccccc3)s2)cc1 [Compound 21, 2-(2-Methyl-5-nitro-1H-imidazol-1-yl)ethyl-4-[(5-phenyl-1,3,4-thiadiazol-2-yl)amino]benzoate]
T. cruzi % Inhibition ± SD (antiproliferative activity) [4]: 58.35 ± 2.05% | inhibition at 50 µM [4]: ~50% | inhibition at 50 µM [1]: 71.4 ± 5.28% | IC50 [2]: 10.1 ± 2.21 µM | CC50 at 48 h [3]: > 500 µM | L. donovani (SI) selectivity index (Vero cells): >49.65 | T. cruzi (SI) selectivity index (Vero cells): >9.01

melting point: > 300 °C
Compound: Cc1ncc([N+](=O)[O-])n1CCOC(=O)c1ccc(Nc2nnc(-c3ccc(-c4ccccc4)cc3)s2)cc1 [Compound 22, 2-(2-Methyl-5-nitro-1H-imidazol-1-yl)ethyl-4-{[5-((1,1’-biphenyl)-4-yl)-1,3,4-thiadiazol-2-yl]amino}benzoate]
inhibition at 50 µM [4]: 7 ± 2.28% | inhibition at 50 µM [1]: 12.9 ± 2.08%

melting point: 252 °C
Compound: COc1cc(-c2nnc(Nc3ccc(C(=O)OCCn4c([N+](=O)[O-])cnc4C)cc3)s2)cc(OC)c1OC [Compound 23, 2-(2-Methyl-5-nitro-1H-imidazol-1-yl)ethyl-4-{[5-(3,4,5-trimethoxyphenyl)-1,3,4-thiadiazol-2-yl]amino}benzoate]
inhibition at 50 µM [4]: 20.3 ± 6.73% | inhibition at 50 µM [1]: 12.7 ± 2.31%
